test system: androgen receptor (AR) in LNCaP and/or VCaP cells; assay: Androgen Receptor ELISA assay (AR degradation); format: cell-based; settings: LNCaP and/or VCaP cells; 5 hours incubation; media with R1881; read-out: DC50 Code* (degradation of AR ELISA)
Procedure: Androgen Receptor ELISA Assay. […] The protocols used with VCaP cells are described below.
The cells were grown for a minimum of 3 days.
(2)(i) A 10× stock plate in media was made; (ii) 2.5 μL of the 1000× stock was transferred to a new 10× stock plate (use 12 channel pipet, start at A (DMSO control) work thru H. When 247.5 µL of media was added to this plate, it served as a 10× stock; (iii) made media+1 nM R1881 for making 10× stock plate; (iv) added 247.5 μL of media with 1 nM R1881 to each well of the 10× stock plate, mix.
Then 22 μL of 10× stock was added to cells and incubated for 5 hours. […] Media was aspirated, and 100 μL 1× cell lysis buffer/well was added. The cells were placed on a shaker located in a cold room for 10 minutes and shaken at speed 7. The lysate mixture was mix and 20 μL transferred to 100 μl of Diluent in ELISA plate (0.15 μg/ml-[…]). The lysate-diluent mixture was store at 4° C. overnight on a shaker located in a cold room at speed 5 (gentle swirl).
The lysate-diluent mixture was shaken for 30 minutes at 37° C. The mouse AR antibody, anti-mouse antibody, TMB, and STOP solution were allowed to come to room temperature. The 1×ELISA buffer included in kit was made and loaded in reservoir. Media from the plate was discarded, the ELISA plate was tapped hard on paper towel, and washed 4×200 μl ELISA wash buffer using a plate washer for the first three washes and an eight channel aspirator for the fourth wash to more thoroughly aspirate the solution.
Next, 100 μL/well of mouse AR detection Ab was added; the plate was covered and shaken at 37° C. for 1 hour; media was discarded from the plates, the plates tapped on a paper towel and washed four times with 200 μL ELISA wash buffer with a plate washer for the first three washes and an eight channel aspirator for the fourth wash; 100 μL/well of anti-mouse—HRP conjugated Ab (comes with the kit) was added; the plates was cover and shaken at 37° C. for 30 minutes; the TMB reagent was allowed to come to room temperature; the media from the plate was discarded, the plates tapped on paper towel, and washed four times with 200 μL ELISA wash buffer with a plate washer for the first three washes and an eight channel aspirator for the fourth wash; plates were tapped on paper towel; 100 μL TMB was added to each well and the plate shaken for 2 minutes—while watching color. STOP solution (100 μL) was added when light blue color developed.
Data was analyzed and plotted using GraphPad Prism software. Exemplary compounds of Tables 1A, 1B, and 1C were assayed and the data shown below in Tables 2A, 2B, and 2C. DC50 (nM) categories (degradation of AR ELISA in LNCaP and/or VCaP cells) of Tables 2A, 2B, and 2C are as follows: A<1 nM; 1≤B<10 nM; 10≤C<100 nM; D≥100 nM. Dmax (%) categories (degradation of AR ELISA in LNCaP and/or VCaP cells) of Table 2 are as follows: A≥70; 50≤B<70; C<50

DC50, < 1 nM:
CCOc1cc(O[C@H]2CC[C@H](NC(=O)c3cnc(N4CC(CN(C(C)C)[C@H]5C[C@H](Oc6ccc7c(c6)C(=O)N(C6CCC(=O)NC6=O)C7=O)C5)C4)cn3)CC2)ccc1C#N (stereo partly shown) [Compound 43, N-((1r,4r)-4-(4-cyano-3-ethoxyphenoxy)cyclohexyl)-5-(3-((((1r,3r)-3-((2-(2,6-dioxopiperidin-3-yl)-1,3-dioxoisoindolin-5-yl)oxy)cyclobutyl) (isopropyl)amino)methyl)azetidin-1-yl)pyrazine-2-carboxamide]

same assay, conditions: degradation of AR ELISA in LNCaP and/or VCaP cells; Table 2C; read-out: DC50 Code*

DC50, < 1 nM:
Cc1cc(O[C@H]2C(C)(C)[C@H](NC(=O)c3ccc(N4CCO[C@H](CN5CCN(c6ccc7c(c6)C(=O)N(C6CCC(=O)NC6=O)C7=O)CC5)C4)cc3)C2(C)C)cc(C)c1C#N (stereo partly drawn) [compound 167, N-((1r,3R)-3-(4-cyano-3,5-dimethylphenoxy)-2,2,4,4-tetramethylcyclobutyl)-4-((2R)-2-((4-(2-(2,6-dioxopiperidin-3-yl)-1,3-dioxoisoindolin-5-yl)piperazin-1-yl)methyl)morpholino) benzamide]
Cc1cc(O[C@H]2C(C)(C)[C@H](NC(=O)c3ccc(N4CCC(CN5CCC[C@H]5COc5ccc6c(c5)C(=O)N(C5CCC(=O)NC5=O)C6=O)CC4)cc3)C2(C)C)cc(C)c1C#N (stereo partly drawn) [compound 172, N-((1r,3S)-3-(4-cyano-3,5-dimethylphenoxy)-2,2,4,4-tetramethylcyclobutyl)-4-(4-(((2S)-2-(((2-(2,6-dioxopiperidin-3-yl)-1,3-dioxoisoindolin-5-yl)oxy)methyl)pyrrolidin-1-yl)methyl)piperidin-1-yl)benzamide]
Cc1cc(O[C@H]2C(C)(C)[C@H](NC(=O)c3ccc(N4CCC(CN(C(C)C)[C@H]5C[C@H](Oc6ccc7c(c6)C(=O)N(C6CCC(=O)NC6=O)C7=O)C5)CC4)nn3)C2(C)C)cc(C)c1C#N (stereo partly shown) [compound 110, N-((1r,3r)-3-(4-cyano-3,5-dimethylphenoxy)-2,2,4,4-tetramethylcyclobutyl)-6-(4-((((1r,3r)-3-((2-(2,6-dioxopiperidin-3-yl)-1,3-dioxoisoindolin-5-yl)oxy)cyclobutyl) (isopropyl)amino)methyl)piperidin-1-yl)pyridazine-3-carboxamide]
COc1cc(O[C@H]2C(C)(C)[C@H](NC(=O)c3cnc(N4CCC(CN(C(C)C)[C@H]5C[C@H](Oc6cccc7c6CN(C6CCC(=O)NC6=O)C7=O)C5)CC4)cn3)C2(C)C)ccc1C#N (mixture of isomers) [compound 177, rac-N-((1r,3r)-3-(4-cyano-3-methoxyphenoxy)-2,2,4,4-tetramethylcyclobutyl)-5-(4-((((1r,3r)-3-((2-(2,6-dioxopiperidin-3-yl)-1-oxoisoindolin-4-yl)oxy)cyclobutyl) (isopropyl)amino)methyl)piperidin-1-yl)pyrazine-2-carboxamide]
Cc1cc(O[C@H]2C(C)(C)[C@H](NC(=O)c3ccc(N4CCC5(CC4)CN([C@H]4C[C@H](Oc6ccc7c(c6)C(=O)N(C6CCC(=O)NC6=O)C7=O)C4)CCO5)cc3)C2(C)C)cc(C)c1C#N (mixture of isomers) [compound 228, rac-N-((1r,3r)-3-(4-cyano-3,5-dimethylphenoxy)-2,2,4,4-tetramethylcyclobutyl)-4-(4-((1r,3r)-3-((2-(2,6-dioxopiperidin-3-yl)-1,3-dioxoisoindolin-5-yl)oxy)cyclobutyl)-1-oxa-4,9-diazaspiro[5.5]undecan-9-yl)benzamide]
COCCN(CC1CCN(c2ccc(C(=O)N[C@H]3C(C)(C)[C@H](Oc4cc(C)c(C#N)c(C)c4)C3(C)C)nn2)CC1)[C@H]1C[C@H](Oc2ccc3c(c2)C(=O)N(C2CCC(=O)NC2=O)C3=O)C1 (stereo partly shown) [compound 121, N-((1r,3r)-3-(4-cyano-3,5-dimethylphenoxy)-2,2,4,4-tetramethylcyclobutyl)-6-(4-((((1r,3r)-3-((2-(2,6-dioxopiperidin-3-yl)-1,3-dioxoisoindolin-5-yl)oxy)cyclobutyl)(2-methoxyethyl)amino)methyl)piperidin-1-yl)pyridazine-3-carboxamide]
